Test results reported in article PMC10900215 (JACS Au, 2024).
Several values for one entry are separate records, joined by “and”; a condition that tells them apart may be missing. Identical values can stand only once.

Columns and labels:
[1] = target: T1, ternary complex CRBN/PROTAC/METTL3–14 (Homo sapiens, UniProt Q86U44+Q96SW2); test: FRET-based ternary complex formation assay (TCFA); assay type: binding; conditions: for TCFA amplitude (mean ± SEM): Hook curve amplitude, fraction of the maximum of compound 16; for ECmax (nM) ± SD: PROTAC concentration at the maximum of the signal in the TCFA
T1 construct: methyltransferase domains (MTD) of METTL3 (residues 354–580); His6 (N, cleaved yes); made in house; host or cells: METTL3-MTD/METTL14-MTD: baculovirus/Sf9; CRBN-TBD: E. coli Rosetta (DE3), co-expressed with BirA
T1 sequence (Q86U44 354-580): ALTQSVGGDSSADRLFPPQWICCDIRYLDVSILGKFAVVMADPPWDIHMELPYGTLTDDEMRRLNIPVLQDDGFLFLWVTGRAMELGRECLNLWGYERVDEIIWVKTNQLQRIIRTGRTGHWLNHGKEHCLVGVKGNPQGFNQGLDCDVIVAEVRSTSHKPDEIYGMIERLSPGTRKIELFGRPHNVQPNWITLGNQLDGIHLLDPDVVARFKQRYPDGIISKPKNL
T1 sequence (Q9HCE5 107-395 partner limits assumed): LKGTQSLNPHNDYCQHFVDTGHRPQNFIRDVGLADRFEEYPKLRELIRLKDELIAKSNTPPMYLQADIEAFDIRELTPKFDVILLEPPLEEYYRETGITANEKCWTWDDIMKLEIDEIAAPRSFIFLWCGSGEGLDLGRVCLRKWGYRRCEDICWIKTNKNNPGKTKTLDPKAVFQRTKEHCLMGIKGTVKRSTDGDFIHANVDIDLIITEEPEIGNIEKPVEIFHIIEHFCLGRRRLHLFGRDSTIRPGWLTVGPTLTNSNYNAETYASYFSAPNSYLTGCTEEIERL
T1 sequence (Q96SW2 318-442): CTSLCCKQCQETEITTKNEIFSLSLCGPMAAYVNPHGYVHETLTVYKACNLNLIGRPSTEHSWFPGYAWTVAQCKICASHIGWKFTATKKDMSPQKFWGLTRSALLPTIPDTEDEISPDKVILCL
Experimental: For protein expression, suspension cultures of Sf9 cells in […] medium (Thermo Fisher) were infected at a density of 2 × 10^6 mL^–1. […] The complex was further purified by size exclusion chromatography using a Superdex 200 Increase 10/300 GL column (Cytiva) in 20 mM Tris-Cl, pH 8.0, and 200 mM KCl. The complex was aliquoted and flash-frozen in liquid nitrogen and stored at −80 °C until further use.
Ternary complex formation between the PROTACs, METTL3, and CRBN was quantified by a homogeneous time-resolved fluorescence (HTRF)-based enzyme assay. […] Curves of titrations with the PROTACs were plotted in GraphPad Prism 9.5.1 and fitted with a Gaussian function, if appropriate. […] CRBN^TBD-Avi(biotin) was used at a final concentration of 10 nM. […] Anti-GST Eu^3+-labeled antibody (Cisbio, 61GSTKLB) was used at a final concentration of 0.8 nM. The final reaction volume was 20 μL in 50 mM HEPES (pH 7.5), 150 mM NaCl, 0.1% BSA, 100 mM KF. […] The ratio of the emissions [drawing 1] was considered for further analysis. […] The concentrations resulting in the maximum signal (ECmax) and the amplitudes of the Hook curves were determined from the parameters of the Gaussian fit (if appropriate) or as the coordinates of the data-point with the highest TR-FRET signal.
For the ternary complex formation assay (TCFA), one of the protein partners must have a GST-tag and the other a biotin-tag.

[2] = Cell viability assay (CellTiter-Glo) on MOLM-13; assay type: cell-based; conditions: human, MOLM-13 cells, average of two biological replicates; for viability at 72 h, […]: 2.5 µM
Experimental: (§1) MOLM-13, NOMO-1, THP-1, Kasumi-1, PC3, and DU145 cell lines were obtained from DSMZ-German Collection of Microorganisms and Cell Cultures GmbH. Cells were cultured in RPMI 1640 medium (11875093, Thermo Fisher Scientific) containing 10% FBS (16140071, Thermo Fisher Scientific) and 1% penicillin-streptomycin (15140122, Thermo Fisher Scientific) in 5% CO2 at 37 °C in a humidified incubator, with maintained cell densities at 0.5–1 × 10^6 cells/mL. All cell lines were tested negative for mycoplasma contamination (PCR-based assay by Microsynth, Switzerland).
Cell viability was determined using a CellTiter-Glo luminescent cell viability assay (Promega) based on the detection of ATP according to the manufacturer’s instructions. 100 μL of the reagent was added to each well and incubated for 10 min at room temperature. […] Background luminescence value was obtained from wells containing the CellTiter-Glo reagent and medium without cells. The resulting data was analyzed in GraphPad Prism 9.

[3] = target: METTL3-14 (Homo sapiens, UniProt Q86U44); test: biochemical; parameters: with the full-length complex, the recombinant complex construct pFastBacDual-StrepII-GFP-TEV-METTL3-His-TEV-METTL14 was expressed; StrepII (N); GFP (N); TEV site (N); made in house; host or cells: baculovirus/Sf9 insect cells; conditions: inhibition of catalytic activity of METTL3-14, binary FRET assay
Sequence of METTL3-14 (Q86U44 whole entry): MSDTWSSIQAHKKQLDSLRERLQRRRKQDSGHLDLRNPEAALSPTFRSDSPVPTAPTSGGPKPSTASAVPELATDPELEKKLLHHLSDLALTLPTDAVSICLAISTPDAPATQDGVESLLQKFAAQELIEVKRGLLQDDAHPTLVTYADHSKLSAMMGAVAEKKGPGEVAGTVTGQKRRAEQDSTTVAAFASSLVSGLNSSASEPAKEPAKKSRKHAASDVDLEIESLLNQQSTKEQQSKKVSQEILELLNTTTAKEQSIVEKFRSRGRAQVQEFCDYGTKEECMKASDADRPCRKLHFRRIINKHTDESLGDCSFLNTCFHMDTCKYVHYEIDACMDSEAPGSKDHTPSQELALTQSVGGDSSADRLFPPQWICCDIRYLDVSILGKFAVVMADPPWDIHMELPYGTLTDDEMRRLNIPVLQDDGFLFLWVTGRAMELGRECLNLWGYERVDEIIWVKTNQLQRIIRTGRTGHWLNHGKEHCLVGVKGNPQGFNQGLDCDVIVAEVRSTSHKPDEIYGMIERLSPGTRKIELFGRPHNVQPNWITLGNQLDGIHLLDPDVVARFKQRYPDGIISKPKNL
Sequence of METTL3-14 (Q9HCE5 whole entry, further chain): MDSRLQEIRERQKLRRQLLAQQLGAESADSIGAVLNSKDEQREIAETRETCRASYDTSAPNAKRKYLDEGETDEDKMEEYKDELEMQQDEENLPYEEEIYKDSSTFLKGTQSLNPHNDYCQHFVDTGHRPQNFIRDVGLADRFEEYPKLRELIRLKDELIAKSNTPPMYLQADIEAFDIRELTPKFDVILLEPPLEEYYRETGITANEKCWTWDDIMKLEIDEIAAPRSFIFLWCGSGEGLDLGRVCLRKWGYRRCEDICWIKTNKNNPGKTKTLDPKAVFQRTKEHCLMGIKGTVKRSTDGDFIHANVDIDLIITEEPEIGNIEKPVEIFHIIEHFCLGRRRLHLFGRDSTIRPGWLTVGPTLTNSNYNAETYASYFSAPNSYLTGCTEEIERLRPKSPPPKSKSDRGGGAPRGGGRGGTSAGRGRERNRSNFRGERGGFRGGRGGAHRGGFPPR
Description: For determining the half maximal inhibitory concentration (IC50) with the full-length complex, the recombinant complex construct pFastBacDual-StrepII-GFP-TEV-METTL3-His-TEV-METTL14 was expressed using the baculovirus/Sf9 insect cell expression system and purified as described previously.[21]
The inhibitory potencies of the PROTACs for METTL3 were quantified by a homogeneous time-resolved fluorescence (HTRF)-based enzyme assay as previously described.[40]

[4] = test system: METTL14; test: Cellular degradation assay (Western blot), METTL14 in MOLM-13; assay type: cell-based, human; conditions: MOLM-13, 24 h, 2 μM compound
Experimental: as §1
(§2) METTL3 (and METTL14) protein degradation was monitored by Western blot. Cells were treated with the indicated concentration of PROTACs or DMSO control (0.1% (v/v)) for 24h, 37 °C with 5% CO2. Samples were then collected and lysed with RIPA buffer with added protease inhibitors (11697498001, Roche). After SDS-PAGE, proteins were transferred to a nitrocellulose membrane, blocked (with 5% milk, 0.5% BSA in TBST buffer), and incubated overnight with primary antibodies. The following antibodies were used: GAPDH (no. 2118, Cell Signaling, 1:4000), β-actin (ab8226, Abcam, 1:2000), METTL3 (ab195352, Abcam, 1:1000), and METTL14 (ab220031, Abcam, 1:1000). Membranes were scanned using an LI-COR Odyssey DLx imager after incubation with appropriate secondary antibodies (antimouse IgG IRDye 680RD (926–68072, LI-COR, 1:10000) and goat anti-Rabbit IgG IRDye 800CW (926–32211, LI-COR, 1:10000)). Densitometry was performed in Image Studio Lite software and analyzed in GraphPad Prism 9.

[5] = target: T2, METTL3 (Homo sapiens, UniProt Q86U44); test: Cellular degradation assay (Western blot), METTL3 in MOLM-13; assay type: cell-based; conditions: MOLM-13, 24 h, 2 μM compound
T2 construct: METTL3–14 degradation up to 70% of the endogenous level; endogenous in cells; host or cells: MOLM-13, PC3, DU145
T2 sequence (Q86U44 2-580 limits assumed): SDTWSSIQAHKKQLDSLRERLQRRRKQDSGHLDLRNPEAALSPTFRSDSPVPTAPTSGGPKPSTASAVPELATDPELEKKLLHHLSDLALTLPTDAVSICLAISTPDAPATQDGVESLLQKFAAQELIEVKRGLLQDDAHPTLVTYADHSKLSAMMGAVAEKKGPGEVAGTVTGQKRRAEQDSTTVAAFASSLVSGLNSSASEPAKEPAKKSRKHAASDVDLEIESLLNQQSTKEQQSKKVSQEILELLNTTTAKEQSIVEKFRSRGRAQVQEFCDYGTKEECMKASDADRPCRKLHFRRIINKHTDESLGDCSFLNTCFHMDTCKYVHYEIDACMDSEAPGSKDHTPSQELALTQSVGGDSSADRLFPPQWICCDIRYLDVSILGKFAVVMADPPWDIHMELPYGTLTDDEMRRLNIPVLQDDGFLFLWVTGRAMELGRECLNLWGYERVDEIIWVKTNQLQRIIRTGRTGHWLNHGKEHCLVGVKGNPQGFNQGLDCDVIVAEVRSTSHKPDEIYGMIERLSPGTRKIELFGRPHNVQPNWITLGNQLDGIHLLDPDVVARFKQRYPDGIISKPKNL
T2 sequence (Q9HCE5 whole entry partner): as the sequence (Q9HCE5 whole entry, further chain) above
Experimental: as §1, §2

CC1(C)CCN(Cc2cc(F)c(N3CC(=O)NC4(CCN(c5cc(NCc6cccc(CNC(=O)CCCCCCCCn7cc(CNc8cccc9c8C(=O)N(C8CCC(=O)NC8=O)C9=O)nn7)c6)ncn5)CC4)C3)cc2F)CC1 (stereo not shown) [Compound 19]
TCFA amplitude (mean ± SEM) [1]: 0.9 ± 0.1 | ECmax (nM) ± SD [1]: 920 ± 150 nM | viability at 72 h, 0.6 µM [2]: 104% | viability at 72 h, 1.25 µM [2]: 104% | viability at 72 h, […] [2]: 102% | viability at 72 h, 5 µM [2]: 97.1% | viability at 72 h, 10 µM [2]: 87.6% | IC50 [3]: 88 ± 21 nM | MOLM-13 West. blot at 24h 2 μM comp conc. Degradation (%) of METTL14 [4]: 40% and 40 ± 16% | MOLM-13 West. blot at 24h 2 μM comp conc. Degradation (%) of METTL3 [5]: 33% and 33 ± 17%

CC1(C)CCN(Cc2cc(F)c(N3CC(=O)NC4(CCN(c5cc(NCC6CCN(C(=O)CCCNc7ccc8c(c7)C(=O)N(C7CCC(=O)NC7=O)C8=O)CC6)ncn5)CC4)C3)cc2F)CC1 (stereo not shown) [Compound 23]
TCFA amplitude (mean ± SEM) [1]: 1.0 ± 0.1 | ECmax (nM) ± SD [1]: 160 ± 80 nM | viability at 72 h, 0.6 µM [2]: 95.3% | viability at 72 h, 1.25 µM [2]: 93.3% | viability at 72 h, […] [2]: 95.2% | viability at 72 h, 5 µM [2]: 87.3% | viability at 72 h, 10 µM [2]: 78.2% | IC50 [3]: 33 ± 12 nM | MOLM-13 West. blot at 24h 2 μM comp conc. Degradation (%) of METTL14 [4]: 57 ± 8% | MOLM-13 West. blot at 24h 2 μM comp conc. Degradation (%) of METTL3 [5]: 50% and 50 ± 12%

CC1(C)CCN(Cc2cc(F)c(N3CC(=O)NC4(CCN(c5cc(NCC6CCN(C(=O)CCCCCCCNc7cccc8c7C(=O)N(C7CCC(=O)NC7=O)C8=O)CC6)ncn5)CC4)C3)cc2F)CC1 (stereo not shown) [Compound 25]
TCFA amplitude (mean ± SEM) [1]: 1.2 ± 0.1 | ECmax (nM) ± SD [1]: 1200 ± 120 nM | viability at 72 h, 0.6 µM [2]: 102% | viability at 72 h, 1.25 µM [2]: 94.8% | viability at 72 h, […] [2]: 92.1% | viability at 72 h, 5 µM [2]: 87% | viability at 72 h, 10 µM [2]: 83.2% | IC50 [3]: 110 ± 10 nM | MOLM-13 West. blot at 24h 2 μM comp conc. Degradation (%) of METTL14 [4]: 36 ± 7% | MOLM-13 West. blot at 24h 2 μM comp conc. Degradation (%) of METTL3 [5]: 20 ± 9%

CC1(C)CCN(Cc2cc(F)c(N3CC(=O)NC4(CCN(c5cc(NCc6cn(CCCCCCCCC(=O)Nc7cccc8c7CN(C7CCC(=O)NC7=O)C8=O)nn6)ncn5)CC4)C3)cc2F)CC1 (stereo not shown) [Compound 26]
TCFA amplitude (mean ± SEM) [1]: 0.8 ± 0.0 | ECmax (nM) ± SD [1]: 190 ± 80 nM | viability at 72 h, 0.6 µM [2]: 97.9% | viability at 72 h, 1.25 µM [2]: 92.6% | viability at 72 h, […] [2]: 91.2% | viability at 72 h, 5 µM [2]: 96.6% | viability at 72 h, 10 µM [2]: 97.3% | IC50 [3]: 34 ± 11 nM | MOLM-13 West. blot at 24h 2 μM comp conc. Degradation (%) of METTL14 [4]: 12 ± 5% | MOLM-13 West. blot at 24h 2 μM comp conc. Degradation (%) of METTL3 [5]: 13% and 13 ± 30%
